Assay results from patent US10124004B2, “Pyrido[3,4-d]pyrimidine derivative and pharmaceutically acceptable salt thereof” (Teijin Pharma Limited, priority 2015, dated 2018).
Like-named read-outs stand apart in the source and are kept apart here.

Tests used:
Assay type in all cases: biochemical
CDK2/cyclin A2 = target: T1, CDK2/cyclin A2 (Homo sapiens, UniProt P24941); assay: Human CDK2/cyclin A2 inhibitory activity (QS S Assist CDK2/Cyclin A2_FP Kit, IMAP fluorescence polarization)
T1 construct: purchased Carna Biosciences, Inc. QS S Assist CDK2/Cyclin A2_FP Kit
Outline: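 Kinase activity read as fluorescence polarization (485/535 nm) after phosphorylated fluorescent substrate binds IMAP reagent (30 min, RT, dark). Enzyme (2.5 ng/well) reacted 60 min at RT with ATP/substrate/metal in HEPES pH 7.4 buffer with Tween 20 and DTT; no-enzyme wells define 0% activity; IC50 by curve fit.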

CDK4/cyclin D3 = target: T2, CDK4/cyclin D3 (Homo sapiens, UniProt P11802); assay: Human CDK4/cyclin D3 inhibitory activity (QS S Assist CDK4/Cyclin D3_FP Kit, IMAP fluorescence polarization)
T2 construct: purchased Carna Biosciences, Inc. QS S Assist CDK4/Cyclin D3_FP Kit
T2 sequence (P11802 whole entry): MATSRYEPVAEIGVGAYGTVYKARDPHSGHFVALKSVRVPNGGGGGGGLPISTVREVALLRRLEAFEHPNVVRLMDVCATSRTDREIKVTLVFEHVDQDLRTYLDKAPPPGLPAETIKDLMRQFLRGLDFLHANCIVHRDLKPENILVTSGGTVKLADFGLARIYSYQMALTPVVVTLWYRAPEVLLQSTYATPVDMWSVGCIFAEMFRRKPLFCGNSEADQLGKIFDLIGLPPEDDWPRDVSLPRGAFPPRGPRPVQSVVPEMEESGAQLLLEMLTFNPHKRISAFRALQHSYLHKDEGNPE
T2 sequence (P30281 whole entry partner): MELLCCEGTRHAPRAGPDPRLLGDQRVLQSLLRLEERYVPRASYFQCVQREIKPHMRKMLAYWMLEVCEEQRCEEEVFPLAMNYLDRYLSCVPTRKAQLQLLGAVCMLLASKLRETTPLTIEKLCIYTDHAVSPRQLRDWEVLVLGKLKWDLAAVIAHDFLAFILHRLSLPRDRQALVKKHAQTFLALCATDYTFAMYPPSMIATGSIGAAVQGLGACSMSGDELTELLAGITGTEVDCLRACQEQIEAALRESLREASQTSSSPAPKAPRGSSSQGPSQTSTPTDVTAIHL
Outline: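 IMAP fluorescence polarization kit: CDK4/cyclin D3 at 12.5-25 ng/well with kit ATP/substrate/metal mix in 20 mM HEPES pH 7.4, 0.01% Tween20, 2 mM DTT, 45 min at room temperature. FP read at 485/535 nm after 30 min binding; IC50 from dose-response fit of percent inhibition versus enzyme and no-enzyme controls.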

CDK6/cyclin D3 = CDK6/cyclin D3 (Homo sapiens, UniProt Q00534); assay: Human CDK6/cyclin D3 inhibitory activity (off-chip mobility shift assay); details: 50% inhibitory concentration against CDK6/cyclin D3; 300 μM ATP, room temperature, five hours; read-out: CDK6 Activity Symbol
Chain of CDK6/cyclin D3 (Q00534 whole entry): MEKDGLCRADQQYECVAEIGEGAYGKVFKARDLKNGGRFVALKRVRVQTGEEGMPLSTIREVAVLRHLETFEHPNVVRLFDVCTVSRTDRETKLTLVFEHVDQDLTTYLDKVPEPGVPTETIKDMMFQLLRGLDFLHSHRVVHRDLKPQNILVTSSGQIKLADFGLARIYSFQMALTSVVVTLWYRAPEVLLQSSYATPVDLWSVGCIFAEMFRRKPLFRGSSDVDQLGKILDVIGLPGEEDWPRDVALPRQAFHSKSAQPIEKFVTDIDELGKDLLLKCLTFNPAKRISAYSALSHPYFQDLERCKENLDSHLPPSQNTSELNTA
Chain of CDK6/cyclin D3 (P30281 whole entry partner): as the sequence (P30281 whole entry partner) above
Experimental: Human CDK6/Cyclin D3 Inhibitory Activity
CDK6/cyclin D3 inhibitory activity was determined by the off-chip mobility shift assay (MSA). The MSA separates proteins from one another on the basis of a difference in electrophoretic mobility depending on the molecular weight or electric charge of the proteins. The kinase activity is determined by quantifying the degree of phosphorylation through electrophoretic analysis of a positive to negative change in electric charge of the substrate phosphorylated by the kinase.
Each solution was prepared with an assay buffer containing 20 mM HEPES (pH 7.5), 0.01% Triton X-100, and 2 mM dithiothreitol. A test compound solution was prepared by dilution of the test compound with dimethyl sulfoxide (DMSO) to a concentration 100 times higher than the final concentration and then 25-fold dilution with the assay buffer to a concentration four times higher than the final concentration. An ATP/substrate/metal solution was prepared to have a concentration four times higher than the final concentration. An enzyme solution was prepared to have a concentration twice higher than the final concentration. The final enzyme concentration was adjusted to an appropriate level on the basis of the enzyme activity signal and the inhibitory activity of a positive control compound.
The test compound solution (5 μL/well) and the ATP/substrate/metal solution (5 μL/well) were added to a 384-well plate, and the enzyme solution or the assay buffer (10 μL/well) was added to the plate (total amount of the reaction mixture: 20 μL/well) for initiation of enzymatic reaction. […] The reaction was performed at room temperature for five hours, and a termination buffer (QuickScout Screening Assist MSA, manufactured by Carna Biosciences, Inc.) (60 μL/well) was then added to the plate for termination of the reaction. Subsequently, the substrate peptide and the phosphorylated peptide in the reaction mixture were separated from each other and quantified with LabChip 3000 (manufactured by Caliper Lifesciences). The kinase reaction was evaluated by the product ratio (P/(P+S)) calculated from the peak height (S) of the substrate peptide and the peak height (P) of the phosphorylated peptide.
The percent inhibition of enzyme activity was calculated for each test compound (note: enzyme activity=100% in the case of addition of the enzyme solution and addition of DMSO instead of the test compound solution, whereas enzyme activity=0% in the case of addition of the assay buffer instead of the enzyme solution and addition of DMSO instead of the test compound solution). The percent inhibition of enzyme activity was fitted to a dose-response curve, to determine a 50% inhibitory concentration against CDK6/cyclin D3.
In each table, “+++” corresponds to IC50<10 nM, “++” 10 nM≤IC50<100 nM, and “+” 100 nM≤IC50.

[1] = Human CDK2/cyclin A2 inhibitory activity, read-out: CDK2 Activity symbol
[2] = Human CDK4/cyclin D3 inhibitory activity, read-out: CDK4 Activity symbol
[3] = 50% inhibitory concentration against CDK2/cyclin A2, given as class symbol
[4] = 50% inhibitory concentration against CDK4/cyclin D3, given as class symbol

SMILES	IC50 (CDK2/cyclin A2; [1]) [nM]	IC50 (CDK4/cyclin D3; [2]) [nM]	IC50 (CDK6/cyclin D3) [nM]	IC50 (CDK2/cyclin A2; [3]) [nM]	IC50 (CDK4/cyclin D3; [4]) [nM]
CC(C)Nc1nc([C@@H](C)O)cc2cnc(Nc3ccc(N4CCNCC4)cn3)nc12 [Compound 16]	≥ 100	< 10	< 10		
CO[C@H](C)c1cc2cnc(Nc3ccc(N4CCNCC4)nn3)nc2c(NC(C)C)n1 [Compound 217, (R)—N8-isopropyl-6-(1-methoxyethyl)-N2-(6-(piperazin-1-yl)pyridazin-3-yl)pyrido[3,4-d]pyrimidine-2,8-diamine]	≥ 100	< 10	10 to 100		
CO[C@H](C)c1cc2cnc(Nc3ccc(CN4CCNCC4)cn3)nc2c(NC(C)C)n1 [Compound 220]	≥ 100	< 10	10 to 100		
COCC(C)(C)Nc1nc([C@@H](C)O)cc2cnc(Nc3ccc(CN4CCNCC4)cn3)nc12 [Compound 221]	≥ 100	< 10	10 to 100		
CC(C)Nc1nc([C@@H](C)O)cc2cnc(Nc3ccc(N4CCNCC4=O)cn3)nc12 [Compound 230]	≥ 100	< 10	< 10		
CO[C@H](C)c1cc2cnc(Nc3ccc(CN4CCNCC4)cn3)nc2c(N[C@H]2CCCOC2)n1 [Compound 300]	≥ 100	< 10	10 to 100		
CO[C@H](C)c1cc2cnc(Nc3ccc(N4CCNCC4)nn3)nc2c(N[C@H]2CCCOC2)n1 [Compound 304]	≥ 100	< 10	10 to 100		
CO[C@H](C)c1cc2cnc(Nc3cnc(N4CCNCC4)cn3)nc2c(NC(C)C)n1 [Compound 363]	≥ 100	< 10	10 to 100		
Cc1nc(Nc2ncc3cc([C@@H](C)O)nc(NC(C)C)c3n2)ccc1N1CCNCC1=O [Compound 749]			10 to 100	≥ 100	< 10
C[C@@H](O)c1cc2cnc(Nc3ccc4c(n3)CCNC4)nc2c(N[C@H]2CCCOC2)n1 [Compound 778]			10 to 100	≥ 100	< 10
CC(C)Nc1nc(C2(C)COC2)cc2cnc(Nc3ccc(N4CCNCC4=O)cn3)nc12 [Compound 779]			< 10	≥ 100	< 10
CCCNc1nc([C@@H](C)OC)cc2cnc(Nc3ccc(CN4CCNCC4)cn3)nc12 [Compound 818]			10 to 100	≥ 100	< 10
CCCNc1nc([C@@H](C)OC)cc2cnc(Nc3ccc(N4CCNCC4)nn3)nc12 [Compound 819]			10 to 100	≥ 100	< 10
CCNc1nc([C@@H](C)O)cc2cnc(Nc3ccc(CN4CCN(CCO)CC4)cn3)nc12 [Compound 843]			10 to 100	≥ 100	< 10
CCCNc1nc([C@@H](C)O)cc2cnc(Nc3ccc(CN4CCN(CCO)CC4)cn3)nc12 [Compound 844]			< 10	≥ 100	< 10
CC(C)Nc1nc(C2(C)COC2)cc2cnc(Nc3ccc(N4CCNCC4)nn3)nc12 [Compound 879]			< 10	≥ 100	< 10
CC(C)Nc1nc(C2(C)COC2)cc2cnc(Nc3ccc(CN4CCNCC4)cn3)nc12 [Compound 883]			< 10	≥ 100	< 10
CC(C)N(C)c1nc([C@@H](C)O)cc2cnc(Nc3ccc(N4CCNCCC4=O)cn3)nc12 [Compound 904]			< 10	≥ 100	< 10
CC(C)Nc1nc([C@@H](C)O)cc2cnc(Nc3ccc4c(n3)CCN(CCO)C4)nc12 [Compound 929]			< 10	≥ 100	< 10
CC(C)Nc1nc([C@@H](C)O)cc2cnc(Nc3ccc4c(n3)CCN(CCN(C)C)C4)nc12 [Compound 954]			< 10	≥ 100	< 10
CCC(O)c1cc2cnc(Nc3ccc(N4CCNCC4=O)cn3)nc2c(NC(C)C)n1 (stereo not drawn) [Compound 1036]			10 to 100	≥ 100	< 10
